The source of these data is patent US11590116B2 (THERAVANCE BIOPHARMA R&D IP, LLC, priority 2019, dated 2023).

Each structure is given as a SMILES string.

For assay [1], the target named is T1, recombinant human ALK5 (TGF-βR1) protein (Homo sapiens, UniProt P36897).
T1 construct: purchased Life Technologies PR9075A
T1 sequence (P36897 34-503): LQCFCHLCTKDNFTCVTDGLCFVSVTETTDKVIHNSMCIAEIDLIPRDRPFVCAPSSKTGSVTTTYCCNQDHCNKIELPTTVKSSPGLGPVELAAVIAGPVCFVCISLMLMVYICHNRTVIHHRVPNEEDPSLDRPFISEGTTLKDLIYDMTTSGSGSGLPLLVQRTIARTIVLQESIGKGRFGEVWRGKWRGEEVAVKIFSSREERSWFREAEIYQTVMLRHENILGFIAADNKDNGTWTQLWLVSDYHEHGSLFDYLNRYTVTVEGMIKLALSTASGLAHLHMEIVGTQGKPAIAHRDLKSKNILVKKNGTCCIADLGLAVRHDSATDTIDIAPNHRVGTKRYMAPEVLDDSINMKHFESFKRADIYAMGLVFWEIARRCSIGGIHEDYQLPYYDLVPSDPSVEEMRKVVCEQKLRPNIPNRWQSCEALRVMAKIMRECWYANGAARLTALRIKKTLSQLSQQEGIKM
In words: Biochemical ALK5 (TGF-βR1) assay to measure pKi (LANCE Ultra ULight kinase assay). The settings on record: apparent pKi from pIC50 by Cheng-Prusoff, read-out: ALK5 pKi (converted). The method in brief: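 Compounds (10 μM to 25 pM) were preincubated 60 min at room temperature with enzyme, then reactions were started with ATP (125 μM stock, 5× final) and run 60 min at 37 °C. EDTA-containing Eu-anti-phospho-Topo IIα (Thr1342) antibody stopped the reaction; TR-FRET read at 665 nm. pIC50 from 4-parameter fit, converted to pKi via Cheng-Prusoff.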
A general note: In TR-FRET formats the signal depends on donor and acceptor labels being close together.

For assay [2], the system named is TGF-β-stimulated SMAD3 phosphorylation in BEAS-2B cells. In words: Cellular ALK5 potency assay, inhibition of TGF-β stimulated pSMAD3 formation in BEAS-2B cells. To be noted: Homo sapiens; inhibition of TGF-β stimulated pSMAD3 formation, BEAS-2B cells; read-out: BEAS2B pIC50 (converted). The assay is classed as cell-based. Put shortly:
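pSMAD3 was quantified by AlphaLISA in BEAS-2B lysates after 10 ng/mL TGF-β (final) for 30 min. Before stimulation, cells received compound for 1 h at 37° C in supplemented HBSS. Values are pIC50, relative to TGF-β-stimulated cells without compound.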

As to `Cc1cccc(-c2[nH]cnc2-c2ccc3ncc(-c4cccc(C(=O)O)n4)cc3c2)n1` [Compound 1041, 6-[6-[5-(6-methyl-2-pyridyl)-1H-imidazol-4-yl]-3-quinolyl]pyridine-2-carboxylic acid], the Ki in assay [1] is 0.0398 to 0.316 nM. Further, the IC50 in assay [2] is 1580 to 10000 nM.

Take `Cc1cccc(-c2[nH]cnc2-c2ccc3ncc(C(=O)OCCN4CCC5(CC4)CNC5)cc3c2)n1` [Compound 892, 2-(2,7-diazaspiro[3.5]nonan-7-yl)ethyl 6-(5-(6-methylpyridin-2-yl)-1H-imidazol-4-yl)quinoline-3-carboxylate]: the Ki in assay [1] was 0.0398 to 0.316 nM. For the same compound, the IC50 in assay [2] was 200 to 1260 nM.

As to `Cc1cccc(-c2[nH]cnc2-c2ccc3ncc(-c4cnc(C(=O)O[C@H]5CCNC5)nc4)cc3c2)n1` [Compound 1072, [(3S)-pyrrolidin-3-yl] 5-[6-[5-(6-methyl-2-pyridyl)-1H-imidazol-4-yl]-3-quinolyl]pyrimidine-2-carboxylate], the Ki in assay [1] was 0.0398 to 0.316 nM. The IC50 in assay [2] is 200 to 1260 nM.

Take `Cc1cccc(-c2[nH]cnc2-c2ccc3ncc(-c4cncc(C(=O)OCC5CNC5)c4)cc3c2)n1` [Compound 665, azetidin-3-ylmethyl 5-[6-[5-(6-methyl-2-pyridyl)-1H-imidazol-4-yl]-3-quinolyl]pyridine-3-carboxylate]: in assay [1], the Ki was 0.0398 to 0.316 nM. Besides, the IC50 in assay [2] was 200 to 1260 nM.

As for `Cc1cccc(-c2[nH]cnc2-c2ccc3ncc(C(=O)OCCCN4CC5(CCNCC5)C4)cc3c2)n1` [Compound 903, 3-(2,7-diazaspiro[3.5]nonan-2-yl)propyl 6-(5-(6-methylpyridin-2-yl)-1H-imidazol-4-yl)quinoline-3-carboxylate], the Ki in assay [1] was 0.0398 to 0.316 nM. The IC50 in assay [2] is 200 to 1260 nM.

For the compound `CNC1(Cn2cc(-c3cnc4ccc(-c5c[nH]nc5-c5ccc(F)c(C)n5)nc4c3)cn2)CC1` [Compound 97, 1-[[4-[6-[3-(5-fluoro-6-methyl-2-pyridyl)-1H-pyrazol-4-yl]-1,5-naphthyridin-3-yl]pyrazol-1-yl]methyl]-N-methyl-cyclopropanamine], the Ki in assay [1] is less than 0.0316 nM. Also, the IC50 in assay [2] is less than 20 nM.

Take `CNCCn1cc(-c2cnc3ccc(-c4c(-c5cccc(C)n5)[nH]c5cccnc45)nc3c2)cn1` [Compound 165, N-methyl-2-[4-[6-[2-(6-methyl-2-pyridyl)-1H-pyrrolo[3,2-b]pyridin-3-yl]-1,5-naphthyridin-3-yl]pyrazol-1-yl]ethanamine]: the Ki in assay [1] is 0.0398 to 0.316 nM. The IC50 in assay [2] is 200 to 1260 nM.

Consider `Cc1cccc(-c2[nH]cnc2-c2ccc3ncc(-c4ccc(C(=O)O[C@H]5CCN(C)C5)s4)cc3c2)n1` [Compound 1008, (S)-1-methylpyrrolidin-3-yl 5-(6-(5-(6-methylpyridin-2-yl)-1H-imidazol-4-yl)quinolin-3-yl)thiophene-2-carboxylate], for which the Ki in assay [1] was 0.0398 to 0.316 nM. Also, in assay [2], the IC50 is 25.1 to 158 nM.

In the case of `Cc1cccc(-c2[nH]cnc2-c2ccc3ncc(N4CCC(NC(=O)C5CCNCC5)CC4)cc3c2)n1` [Compound 583, N-[1-[6-[5-(6-methyl-2-pyridyl)-1H-imidazol-4-yl]-3-quinolyl]-4-piperidyl]piperidine-4-carboxamide], in assay [1], the Ki is 0.0398 to 0.316 nM. The IC50 in assay [2] was 1580 to 10000 nM.

Consider `Cc1cccc(-c2n[nH]cc2-c2ccc3ncc(-c4cnco4)cc3n2)n1` [Compound 317, 5-[6-[3-(6-methyl-2-pyridyl)-1H-pyrazol-4-yl]-1,5-naphthyridin-3-yl]oxazole], for which the Ki in assay [1] was 0.0398 to 0.316 nM. The IC50 in assay [2] was less than 20 nM.

`Cc1cccc(-c2[nH]cnc2-c2ccc3ncc(C4=CC[C@H](NC(=O)[C@@H]5CCC(=O)N5)CC4)cc3c2)n1` [Compound 764, (2S)-N-[(1R)-4-[6-[5-(6-methyl-2-pyridyl)-1H-imidazol-4-yl]-3-quinolyl]cyclohex-3-en-1-yl]-5-oxo-pyrrolidine-2-carboxamide]: the Ki in assay [1] was 0.0398 to 0.316 nM. In addition, the IC50 in assay [2] is 200 to 1260 nM.

With `Cc1cccc(-c2n[nH]cc2-c2ccc3ncc(-c4ccc5c(n4)CCNC5)cc3n2)n1` [Compound 678, 2-[3-(6-methyl-2-pyridyl)-1H-pyrazol-4-yl]-7-(5,6,7,8-tetrahydro-1,6-naphthyridin-2-yl)-1,5-naphthyridine], the Ki in assay [1] was less than 0.0316 nM. Moreover, the IC50 in assay [2] was 25.1 to 158 nM.

As to `Cc1cccc(-c2n[nH]cc2-c2ccc3ncc(NC(=O)CCCN4CCN(C(C)C)CC4)cc3n2)n1` [Compound 99, 4-(4-isopropylpiperazin-1-yl)-N-[6-[3-(6-methyl-2-pyridyl)-1H-pyrazol-4-yl]-1,5-naphthyridin-3-yl]butanamide], the Ki in assay [1] is 0.0398 to 0.316 nM. In addition, in assay [2], the IC50 was 25.1 to 158 nM.

For the compound `Cc1cccc(-c2n[nH]cc2-c2ccc3ncc(-c4cnn(CCN5CCNCC5)c4)cc3n2)n1` [Compound 178, 2-[3-(6-methyl-2-pyridyl)-1H-pyrazol-4-yl]-7-[1-(2-piperazin-1-ylethyl)pyrazol-4-yl]-1,5-naphthyridine], the Ki in assay [1] is less than 0.0316 nM. The IC50 in assay [2] is 25.1 to 158 nM.

For `Cc1cccc(-c2[nH]cnc2-c2ccc3ncc(C4=CCC(C(=O)O[C@@H]5CCN(C)C5)CC4)cc3c2)n1` (stereo partly drawn) [Compound 710, [(3R)-1-methylpyrrolidin-3-yl] 4-[6-[5-(6-methyl-2-pyridyl)-1H-imidazol-4-yl]-3-quinolyl]cyclohex-3-ene-1-carboxylate], the Ki in assay [1] is 0.0398 to 0.316 nM. Also, the IC50 in assay [2] was 25.1 to 158 nM.

Take `Cc1cccc(-c2[nH]cnc2-c2ccc3ncc(C(=O)O[C@H]4CC[C@](C)(N)CC4)cc3c2)n1` [Compound 771, (4-amino-4-methyl-cyclohexyl) 6-[5-(6-methyl-2-pyridyl)-1H-imidazol-4-yl]quinoline-3-carboxylate]: in assay [1], the Ki was 0.0398 to 0.316 nM. Further, the IC50 in assay [2] was 25.1 to 158 nM.

In the case of `Cc1cccc(-c2n[nH]cc2-c2ccc3ncc(-c4nnn5c4CNCC5)cc3n2)n1` [Compound 130, 2-[3-(6-methyl-2-pyridyl)-1H-pyrazol-4-yl]-7-(4,5,6,7-tetrahydrotriazolo[1,5-a]pyrazin-3-yl)-1,5-naphthyridine], the Ki in assay [1] is 0.0398 to 0.316 nM. Also, the IC50 in assay [2] was 25.1 to 158 nM.

On to `Cc1nc(-c2[nH]cnc2-c2ccc3ncc(-c4cn[nH]c4)cc3n2)ccc1F` [Compound 536, 2-[5-(5-fluoro-6-methyl-2-pyridyl)-1H-imidazol-4-yl]-7-(1H-pyrazol-4-yl)-1,5-naphthyridine], for which the Ki in assay [1] was less than 0.0316 nM. In assay [2], the IC50 was less than 20 nM.

As to `Cc1cccc(-c2[nH]cnc2-c2ccc3ncc(-c4csc(C(=O)OC5CCNCC5)n4)cc3c2)n1` [Compound 1146, 4-piperidyl 4-[6-[5-(6-methyl-2-pyridyl)-1H-imidazol-4-yl]-3-quinolyl]thiazole-2-carboxylate], the Ki in assay [1] was less than 0.0316 nM. Also, the IC50 in assay [2] was 25.1 to 158 nM.

In the case of `Cc1cccc(-c2[nH]cnc2-c2ccc3ncc(C4=CCNC4)cc3n2)n1` [Compound 410, 7-(2,5-dihydro-1H-pyrrol-3-yl)-2-[5-(6-methyl-2-pyridyl)-1H-imidazol-4-yl]-1,5-naphthyridine], the Ki in assay [1] is 0.0398 to 0.316 nM. Besides, the IC50 in assay [2] is 25.1 to 158 nM.

On to `Cc1cccc(-c2n[nH]cc2-c2ccc3ncc(-c4nnc5n4CCN5)cc3n2)n1` [Compound 102, 7-(6,7-dihydro-5H-imidazo[2,1-c][1,2,4]triazol-3-yl)-2-[3-(6-methyl-2-pyridyl)-1H-pyrazol-4-yl]-1,5-naphthyridine], for which the Ki in assay [1] was 0.0398 to 0.316 nM. Also, in assay [2], the IC50 is 1580 to 10000 nM.

`Cc1cccc(-c2[nH]cnc2-c2ccc3ncc(C4=CCN(C(=O)C5CNC5)CC4)cc3c2)n1` [Compound 1036, azetidin-3-yl-[4-[6-[5-(6-methyl-2-pyridyl)-1H-imidazol-4-yl]-3-quinolyl]-3,6-dihydro-2H-pyridin-1-yl]methanone]: the Ki in assay [1] was 0.0398 to 0.316 nM. The IC50 in assay [2] was 200 to 1260 nM.

For `Cc1cccc(-c2n[nH]cc2-c2ccc3nccc(CNCCCN4CCN(C(C)C)CC4)c3n2)n1` [Compound 819, 3-(4-isopropylpiperazin-1-yl)-N-[[6-[3-(6-methyl-2-pyridyl)-1H-pyrazol-4-yl]-1,5-naphthyridin-4-yl]methyl]propan-1-amine], in assay [1], the Ki is 0.0398 to 0.316 nM. Further, the IC50 in assay [2] was 25.1 to 158 nM.

As for `Cc1cccc(-c2[nH]cnc2-c2ccc3ncc(C4=CCC(NCC(CCO)C(=O)O)CC4)cc3c2)n1` (centres unmarked) [Compound 150, 4-hydroxy-2-[[[4-[6-[5-(6-methyl-2-pyridyl)-1H-imidazol-4-yl]-3-quinolyl]cyclohex-3-en-1-yl]amino]methyl]butanoic acid], in assay [1], the Ki is less than 0.0316 nM. In addition, the IC50 in assay [2] is 200 to 1260 nM.

In the case of `CNCCn1ccc(-c2cnc3ccc(-c4nc[nH]c4-c4cccc(C)n4)nc3c2)n1` [Compound 152, N-methyl-2-[3-[6-[5-(6-methyl-2-pyridyl)-1H-imidazol-4-yl]-1,5-naphthyridin-3-yl]pyrazol-1-yl]ethanamine], the Ki in assay [1] is less than 0.0316 nM. The IC50 in assay [2] is 25.1 to 158 nM.
